Measurements published in US20140308244A1, “Combination Therapy for Treatment of Inflammatory Demyelinating Disease” (The Board of Trustees of the Leland Stanford Junior …, priority 2011, published 2014).

Legend:
[1] = test system: EAE; experiment: EAE relapse model: Rebif and/or Lisinopril treatment initiated at peak of disease; format: in vivo; conditions: Rebif daily 0.25 μg/mouse intraperitoneally, Lisinopril 1 mg/kg/day orally
Description: FIG. 2 is a graph of disease scores for EAE, when combination treatment of Rebif and Lisinopril is initiated at the peak of disease.
In this instance, Rebif was given daily (0.25 μg/mouse, intraperitoneally), and Lisinopril was given daily (1 mg/kg/day, orally).

[2] = test system: experimental autoimmune encephalomyelitis (EAE); conditions: mouse model for multiple sclerosis; Platten et al, 2009, PNAS 106:14948; cited from earlier work

## NCCCC[C@H](N[C@@H](CCc1ccccc1)C(=O)O)C(=O)N1CCC[C@H]1C(=O)O [Lisinopril]
[1]
  Average Relapse Rate: 0.7
[1]; listed as PBS/Lisinopril
  Average Relapse Rate: 0.70
[2]
  efficacy in treating EAE: effective
